Data published in patent publication US20120270744A1, “METHODS TO DETERMINE IF A SUBJECT WILL RESPOND TO A BCR-ABL INHIBITOR” (Oregon Health & Science University, priority 2007, published 2012).
Read-outs that look alike come from different tables or passages of the source.

Assays:
[1] = test system: patients with CML in chronic phase; settings: cited from earlier work; for risk of progression to accelerated phase or blast crisis: at 5 years
[2] = test system: Lin−/CD34+/CD38+ and Lin−/CD34+/CD38− CML cells; experiment: Culture of sorted primitive CML cells with imatinib: growth and viability; assay type: cell-based, human; settings: 5 μM imatinib, physiological concentrations of cytokines
Description: FIGS. 9A-9C are a set of graphs dot plots and digital images of Western blots showing viable cells and phosphotyrosine content following treatment with a BCR-ABL inhibitor. […] (FIG. 9B) After 2 hours, immunoblot analysis of cellular extracts for Crkl phosphorylation was preformed. (FIG. 9C) Aliquots from the same cultures were analyzed by FACS analysis for total cellular phosphotyrosine content. Results were identical after 96 hours of culture.
A combination of lineage-depletion columns and high speed sorting was used to select highly pure populations of Lin−/CD34+/CD38+(enriched for progenitor cells) and Lin−/CD34+/[…] (enriched for stem cells). […] It was concludes that survival of primitive CML cells may not require BCR-ABL kinase activity, implicating BCR-ABL-independent extrinsic or intrinsic mechanisms in the maintenance of viability.

CML CD34+ cells = experiment: Centrifugal adhesion assay to fibronectin with fluorescently labeled cells; assay type: cell-based, human
Text: (FIG. 10A) Adhesion under the carious conditions. (FIG. 10B) Fold expansion of viable cells. (FIG. 10C) Recovery of CFU-GM.
To reliably quantify adherence we modified the McClay (1981 PNAS 78:4975-9) centrifugal adhesion assay, using fluorescently labeled cells.

[3] = test system: newly diagnosed chronic phase CML patients; experiment: Cytogenetic response of validation set patients treated with imatinib; assay type: in vivo, human; settings: within 12 months, 23 newly diagnosed chronic phase patients

Cc1ccc(NC(=O)c2ccc(CN3CCN(C)CC3)cc2)cc1Nc1nccc(-c2cccnc2)n1 [imatinib]
projected overall survival ([1]; 60 months of follow-up): 89%
patients who progressed to accelerated phase or blast crisis ([1]; among those who lost response): 7%
risk of progression to accelerated phase or blast crisis ([1]; patients in complete cytogenetic response after 12 months of therapy): 3%
risk of progression to accelerated phase or blast crisis ([1]; patients with primary cytogenetic resistance): 19%
patients with primary cytogenetic resistance (failed to attain a major cytogenetic response) ([1]; at 12 months): approximately 14%
patients who lost their response ([1]; human, in vivo): approximately 16%
cumulative rate of complete cytogenetic response (CCyR, 0% Ph+ metaphases) ([1]; newly diagnosed CML in chronic phase, imatinib as initial therapy, 60 months of follow-up): 87%
viability [2]: viability was maintained
growth (total number of viable cells over time) ([2]; preliminary experiments N=4): reduced to approximately the level of normal cells
spontaneous adhesion to fibronectin (CML CD34+ cells; imatinib 5 micoM, 96 hours culture): further reduced
adhesion to fibronectin (CML CD34+ cells; imatinib in presence of beta1 integrin activating antibody B44): again reduced
patients who achieved CCyR [3]: 74%
